Columns and labels:
[1] = Michaelis-Menten kinetics was measured for the hydrolysis catalyzed by antibody 15C5
[2] = Catalysis kinetic constant was measured for the hydrolysis catalyzed by antibody 15C5
[3] = Hydrolysis kinetic catalysis constant was measured for the hydrolysis catalyzed by antibody 15C5

CC(=O)NC1COP(=O)(Oc2ccc([N+](=O)[O-])cc2)OC1 (stereo not drawn)
Km [1]: 87 µM | k cat [2]: 0.0442 s⁻¹ | Kuncat [3]: 2.1 min⁻¹

Source: ChEMBL document CHEMBL1149988, “Antibody catalyzed hydrolysis of a phosphotriester” (Bioorg Med Chem Lett, 1996)
